Test results from patent publication US11214564B2, “Compounds with thymine skeleton for use in medicine” (TECHNISCHE UNIVERSITÄT DRESDEN, priority 2019, dated 2022).

The compounds below were run against HSP27 (Homo sapiens, UniProt P04792) (assay: Aggregation assay: HSP27 chaperone activity on heat-induced aggregation of citrate synthase). Conditions: compound 10 μM; 1.44 μM CS, 481 nM HSP27, 43° C., 500 nm.
Sequence of HSP27 (P04792 whole entry): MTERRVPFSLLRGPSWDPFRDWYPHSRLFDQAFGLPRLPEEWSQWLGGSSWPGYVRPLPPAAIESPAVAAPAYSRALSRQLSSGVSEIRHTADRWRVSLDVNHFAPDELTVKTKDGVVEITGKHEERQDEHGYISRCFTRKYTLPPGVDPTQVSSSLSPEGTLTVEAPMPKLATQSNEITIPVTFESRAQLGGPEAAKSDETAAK
Format: biochemical
Procedure: To test how small molecules affect the chaperone activity of HSP27, misfolding and aggregation of citrate synthase (CS), a well-known in vitro client protein of HSP27, was measured. Citrate synthase misfolds and aggregates when exposed to heat shock at 43° C. This heat denaturation is prevented or delayed in the presence of HSP27 (CS+HSP27) (Jakob et al. (1993)). […] The samples were incubated at 43° C. and the aggregation behavior of CS was monitored in a spectrometer (PerkinElmer LS55) at a wavelength of 500 nm. Substances inhibiting HSP27's chaperone activity lead to continued denaturation of the client protein and its aggregation in solution. This inhibition correlates with the strength of the interaction between HSP27 and the test substance, which is related to its binding efficiency.
In the reference experiment BVDU (CS+HSP27+BVDU) was tested at a concentration of 750 μM as previously described (Heinrich et al. (2016)).
The compounds according to the invention were tested at a concentration of 10 μM.
`Cc1cn(-c2ccc(NC(=O)Cc3cccc(-c4ccc(Cl)c(Cl)c4)c3)cc2)c(=O)[nH]c1=O` [Compound 3, 2-(3′,4′-dichloro-[1,1′-biphenyl]-3-yl)-N-(4-(5-methyl-2,4-dioxo-3,4-dihydro-pyrimidin-1(2H)-yl)phenyl) acetamide] was tested, and the “aggregation value related to the value from reference experiment (CS + HSP27 + BVDU), which was set at 1.0” value (“aggregation value related to the value” below) was 1.44. With `O=C(Cc1cccc(-c2ccc(Cl)c(Cl)c2)c1)Nc1ccc(-n2ccc(=O)[nH]c2=O)c(Cl)c1` [Compound 21, N-(3-chloro-4-(2,4-dioxo-3,4-dihydro-pyrimidin-1(2H)-yl)phenyl)-2-(3′,4′-dichloro-[1,1′-biphenyl]-3-yl)acetamide] the “aggregation value related to the value” value was 0.94. For `O=C(NCc1cn(-c2ccc(-n3ccc(=O)[nH]c3=O)cc2)nn1)c1ccc(Cl)c(Cl)c1` [Compound 54, 3,4-Dichloro-N-((1-(4-(2,4-dioxo-3,4-dihydropyrimidin-1(2H)-yl)phenyl)-1H-1,2,3-triazol-4-yl)methyl)benzamide], the “aggregation value related to the value” value was 1.42. In the case of `Cc1cn(-c2ccc(NC(=O)c3cccc(-c4cccc(OC(F)(F)F)c4)c3)cc2)c(=O)[nH]c1=O` [Compound 47, N-(4-(5-methyl-2,4-dioxo-3,4-dihydro-pyrimidin-1(2H)-yl)phenyl)-3′-(trifluoro-methoxy)-[1,1′-biphenyl]-3-carboxamide], the “aggregation value related to the value” value is reported as 1.46. In the case of `O=C(Cc1cccc(-c2ccc(Cl)cc2)c1)Nc1ccc(-n2ccc(=O)[nH]c2=O)cc1` [Compound 24, 2-(4′-chloro-[1,1′-biphenyl]-3-yl)-N-(4-(2,4-dioxo-3,4-dihydro-pyrimidin-1(2H)-yl)phenyl) acetamide], the “aggregation value related to the value” value is reported as 0.88. In the case of `O=C(Nc1ccc(Cn2ccc(=O)[nH]c2=O)cc1)c1cccc(-c2cccc(OC(F)(F)F)c2)c1` [Compound 35, N-(4-((2,4-dioxo-3,4-dihydro-pyrimidin-1(2H)-yl)methyl)phenyl)-3′-(trifluoro-methoxy)-[1,1′-biphenyl]-3-carboxamide], the “aggregation value related to the value” value is reported as 1.55. In the case of `COc1ccc(-c2cccc(C(=O)Nc3ccc(-n4ccc(=O)[nH]c4=O)cc3)c2)cc1Cl` [Compound 44, 3′-chloro-N-(4-(2,4-dioxo-3,4-dihydro-pyrimidin-1(2H)-yl)phenyl)-4′-methoxy-[1,1′-biphenyl]-3-carboxamide], the “aggregation value related to the value” value is reported as 0.83. `Cc1ccc(-c2cccc(C(=O)Nc3ccc(-n4cc(C)c(=O)[nH]c4=O)cc3)c2)cc1Cl` [Compound 49, 3′-chloro-4′-methyl-N-(4-(5-methyl-2,4-dioxo-3,4-dihydro-pyrimidin-1(2H)-yl)phenyl)-[1,1′-biphenyl]-3-carboxamide] was tested, and the “aggregation value related to the value” value was 1.16. In the case of `Cc1ccc(-c2cccc(CC(=O)Nc3ccc(-n4cc(C)c(=O)[nH]c4=O)cc3)c2)cc1Cl` [Compound 6, 2-(3′-chloro-4′-methyl-[1,1′-biphenyl]-3-yl)-N-(4-(5-methyl-2,4-dioxo-3,4-dihydropyrimidin-1(2H)-yl)phenyl) acetamide], the “aggregation value related to the value” value is reported as 1.38. With `COc1ccc(-c2cccc(C(=O)Nc3ccc(Cn4ccc(=O)[nH]c4=O)cc3)c2)cc1Cl` [Compound 37, 3′-chloro-N-(4-((2,4-dioxo-3,4-dihydro-pyrimidin-1(2H)-yl)methyl)phenyl)-4′-methoxy-[1,1′-biphenyl]-3-carboxamide] the “aggregation value related to the value” value was 0.91. For `O=C(Cc1cccc(-c2cccc(OC(F)(F)F)c2)c1)Nc1cccc(-n2ccc(=O)[nH]c2=O)c1` [Compound 39, N-(3-(2,4-dioxo-3,4-dihydro-pyrimidin-1(2H)-yl)phenyl)-2-(3′-(trifluoro-methoxy)-[1,1′-biphenyl]-3-yl) acetamide], the “aggregation value related to the value” value was 1.21. `COc1ccc(-c2cccc(CC(=O)Nc3ccc(-n4ccc(=O)[nH]c4=O)cc3F)c2)cc1Cl` [Compound 25, 2-(3′-chloro-4′-methoxy-[1,1′-biphenyl]-3-yl)-N-(4-(2,4-dioxo-3,4-dihydro-pyrimidin-1(2H)-yl)-2-fluoro-phenyl)acetamide] was tested, and the “aggregation value related to the value” value was 0.88. For `O=C(Cc1cccc(-c2cccc(OC(F)(F)F)c2)c1)Nc1ccc(-n2ccc(=O)[nH]c2=O)c(Cl)c1` [Compound 19, N-(3-chloro-4-(2,4-dioxo-3,4-dihydro-pyrimidin-1(2H)-yl)phenyl)-2-(3′-(trifluoro-methoxy)-[1,1′-biphenyl]-3-yl) acetamide], the “aggregation value related to the value” value was 0.97. In the case of `O=C(Cc1cccc(-c2cccc(OC(F)(F)F)c2)c1)Nc1ccc(-n2ccc(=O)[nH]c2=O)cc1F` [Compound 28, N-(4-(2,4-dioxo-3,4-dihydro-pyrimidin-1(2H)-yl)-2-fluoro-phenyl)-2-(3′-(trifluoro-methoxy)-[1,1′-biphenyl]-3-yl) acetamide], the “aggregation value related to the value” value is reported as 0.82. In the case of `Cc1cccc(-c2cccc(C(=O)Nc3ccc(-n4ccc(=O)[nH]c4=O)cc3)c2)c1` [Compound 42, N-(4-(2,4-dioxo-3,4-dihydro-pyrimidin-1(2H)-yl)phenyl)-3′-methyl-[1,1′-biphenyl]-3-carboxamide], the “aggregation value related to the value” value is reported as 0.66. In the case of `O=C(Cc1cccc(-c2ccc(Cl)c(Cl)c2)c1)Nc1ccc(-n2ccc(=O)[nH]c2=O)cc1F` [Compound 32, 2-(3′,4′-dichloro-[1,1′-biphenyl]-3-yl)-N-(4-(2,4-dioxo-3,4-dihydro-pyrimidin-1(2H)-yl)-2-fluoro-phenyl)acetamide], the “aggregation value related to the value” value is reported as 0.76. For `O=C(Nc1ccc(-n2ccc(=O)[nH]c2=O)cc1)c1cccc(-c2cccc(Cl)c2)c1` [Compound 43, 3′-chloro-N-(4-(2,4-dioxo-3,4-dihydro-pyrimidin-1(2H)-yl)phenyl)-[1,1′-biphenyl]-3-carboxamide], the “aggregation value related to the value” value was 0.79. With `O=C(Cc1cccc(-c2ccc(Cl)cc2Cl)c1)Nc1ccc(-n2cc(F)c(=O)[nH]c2=O)cc1` [Compound 20, 2-(2′,4′-dichloro-[1,1′-biphenyl]-3-yl)-N-(4-(5-fluoro-2,4-dioxo-3,4-dihydro-pyrimidin-1(2H)-yl)phenyl) acetamide] the “aggregation value related to the value” value was 0.96. For `Cc1cccc(-c2cccc(CC(=O)Nc3ccc(-n4ccc(=O)[nH]c4=O)cc3)c2)c1` [Compound 33, N-(4-(2,4-dioxo-3,4-dihydro-pyrimidin-1(2H)-yl)phenyl)-2-(3′-methyl-[1,1′-biphenyl]-3-yl) acetamide], the “aggregation value related to the value” value was 0.69. `COc1ccc(-c2cccc(CC(=O)Nc3ccc(-n4cc(C)c(=O)[nH]c4=O)cc3)c2)cc1Cl` [Compound 1, 2-(3′-Chloro-4′-methoxy-[1,1′-biphenyl]-3-yl)-N-(4-(5-methyl-2,4-dioxo-3,4-dihydropyrimidin-1(2H)-yl)phenyl)acetamide] was tested, and the “aggregation value related to the value” value was 1.76.
